The values that follow come from article PMC12546632, “The role of cytochrome bc1 inhibitors in future tuberculosis treatment regimens” (Nature Communications, 2025).

For series [1], the system named is M. tuberculosis reference strain H37Rv. The experiment in a line: Survival under monotherapy in intravenous model (related to Study C). The settings on record: for Day of death, individual mice: monotherapy, read with the 1/0 flag of the same line (96 with flag 0). It counts as in vivo, Mycobacterium tuberculosis.
Series [2] has as its system M. tuberculosis H37Rv. Briefly: MIC90 determination, H37Rv. Type of series: cell-based, Mycobacterium tuberculosis. The settings on record: Mycobacterium tuberculosis.
Series [3] relates to M. tuberculosis clinical isolates. Briefly: microbe, parasite or virus in culture. Type of series: cell-based, Mycobacterium tuberculosis. The settings on record: Mycobacterium tuberculosis.
Series [4] relates to M. tuberculosis ΔcydAB (Parent). Briefly: microbe, parasite or virus in culture. Type of series: cell-based. The settings on record: Mycobacterium tuberculosis.
The test system of a further series is H37Rv_CydBd-KO. The experiment in a line: microbe, parasite or virus in culture. Type of series: cell-based, Mycobacterium tuberculosis. Particulars: Mycobacterium tuberculosis.
For series [5], the system named is M. tuberculosis H37Rv. Briefly: MBC99.9 determination, H37Rv. It counts as cell-based, Mycobacterium tuberculosis. The settings on record: Mycobacterium tuberculosis, H37RV.
For a further series, the system named is H37Rv_CytBd-KO. The experiment in a line: microbe, parasite or virus in culture. It counts as cell-based, Mycobacterium tuberculosis. The settings on record: Mycobacterium tuberculosis; read-out: MBC99.9 (H37Rv_CytBd-KO).
For a further series, the system named is WT H37Rv. It counts as cell-based, Mycobacterium tuberculosis. The settings on record: biological replicates.
The next series has as its system N1283 clinical isolate. It counts as cell-based, Mycobacterium tuberculosis. The settings on record: biological replicates.
Series [6] is classed as in vitro ADME. As for the experimental part:
(§1) Details of the metabolic stability in liver microsomes and hepatocytes together with CYP inhibition in human liver microsomes and plasma protein binding have been published previously. The CYP induction assay was conducted by Puracyp Inc (www.puracyp.com). Studies were designed to evaluate the effect of compounds on the activation of human PXR (hPXR). The DPX2TM cells harbour the human PXR gene (NR1I2) and a luciferase reporter gene linked to two promoters identified in the human CYP3A4 gene, namely XREM and PXRE. These cells were seeded in a 96-well plate. Twenty-four hours after seeding, the cells were treated with various concentrations of compounds then incubated for an additional 24 h. Following this, the number of viable cells per well were determined using Promega’s CellTiter Fluor Cytotoxicity Assay. Briefly, One-Glo was added to the same wells and reporter gene activity was assessed. The luminescence light intensity was directly proportional to the extent of PXR activation and accompanying gene transcription in the DPX2TM cells.

Another series concerns the target human PXR (hPXR) (Homo sapiens, UniProt O75469). It counts as in vitro ADME. As for the experimental part: as §1
The format of series [7] is in vitro ADME. Particulars: hepatocytes.
The next series has as its target T1, 3A4 (Homo sapiens, UniProt P08684).
T1 construct: from tissue; host or cells: human liver microsomes
Type of series: in vitro ADME.

In another series the target is T2, 2C19 (Homo sapiens, UniProt P33261).
T2 construct: from tissue; host or cells: human liver microsomes
T2 sequence (P33261 whole entry): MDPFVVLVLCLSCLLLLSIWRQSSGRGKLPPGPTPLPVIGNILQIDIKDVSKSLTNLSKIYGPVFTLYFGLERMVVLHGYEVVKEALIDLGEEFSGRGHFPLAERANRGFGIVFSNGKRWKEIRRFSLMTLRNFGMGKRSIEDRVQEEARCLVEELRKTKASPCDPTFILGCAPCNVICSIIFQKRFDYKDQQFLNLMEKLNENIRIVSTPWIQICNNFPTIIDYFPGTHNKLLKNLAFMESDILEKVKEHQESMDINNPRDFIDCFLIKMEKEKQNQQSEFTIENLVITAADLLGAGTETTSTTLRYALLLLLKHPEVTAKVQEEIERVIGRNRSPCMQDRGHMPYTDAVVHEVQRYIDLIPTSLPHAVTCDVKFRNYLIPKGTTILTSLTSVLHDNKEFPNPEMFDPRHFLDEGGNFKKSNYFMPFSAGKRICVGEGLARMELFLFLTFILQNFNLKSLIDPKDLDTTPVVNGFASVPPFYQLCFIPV
It counts as in vitro ADME.

A further series concerns the target T3, 2C8 (Homo sapiens, UniProt P10632).
T3 construct: from tissue; host or cells: human liver microsomes
It counts as in vitro ADME.

The target of the next series is T4, 2C9 (Homo sapiens, UniProt P11712).
T4 construct: from tissue; host or cells: human liver microsomes
T4 sequence (P11712 whole entry): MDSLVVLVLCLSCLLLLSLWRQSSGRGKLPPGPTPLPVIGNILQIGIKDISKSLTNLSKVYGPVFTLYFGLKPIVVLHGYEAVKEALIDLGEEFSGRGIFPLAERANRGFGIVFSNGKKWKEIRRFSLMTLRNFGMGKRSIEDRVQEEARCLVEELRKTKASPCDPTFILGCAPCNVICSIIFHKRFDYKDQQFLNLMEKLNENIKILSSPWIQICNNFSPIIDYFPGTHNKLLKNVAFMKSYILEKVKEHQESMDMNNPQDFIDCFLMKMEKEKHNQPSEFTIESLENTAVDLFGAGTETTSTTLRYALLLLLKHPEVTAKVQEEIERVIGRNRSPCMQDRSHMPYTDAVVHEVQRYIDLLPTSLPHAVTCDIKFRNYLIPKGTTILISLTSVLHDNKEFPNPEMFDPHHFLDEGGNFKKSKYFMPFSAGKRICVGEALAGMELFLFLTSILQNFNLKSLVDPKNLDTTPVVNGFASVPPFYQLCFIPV
It counts as in vitro ADME.

In the next series the target is T5, 2D6 (Homo sapiens, UniProt P10635).
T5 construct: from tissue; host or cells: human liver microsomes
T5 sequence (P10635 whole entry): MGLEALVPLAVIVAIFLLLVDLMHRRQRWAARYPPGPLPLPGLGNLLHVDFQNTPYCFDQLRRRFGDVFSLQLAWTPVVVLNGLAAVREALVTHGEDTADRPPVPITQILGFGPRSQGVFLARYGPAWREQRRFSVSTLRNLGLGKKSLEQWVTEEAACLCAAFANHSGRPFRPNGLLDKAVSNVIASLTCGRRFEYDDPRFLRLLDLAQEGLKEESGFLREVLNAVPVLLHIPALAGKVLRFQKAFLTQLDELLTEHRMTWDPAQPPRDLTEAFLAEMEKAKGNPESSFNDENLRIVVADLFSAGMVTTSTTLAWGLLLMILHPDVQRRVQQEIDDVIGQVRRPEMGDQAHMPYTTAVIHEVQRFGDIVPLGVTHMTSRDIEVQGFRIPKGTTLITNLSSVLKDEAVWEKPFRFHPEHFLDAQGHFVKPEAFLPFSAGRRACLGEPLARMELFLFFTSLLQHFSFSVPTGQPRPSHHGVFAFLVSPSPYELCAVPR
Type of series: in vitro ADME.

In the next series the target is T6, 1A2 (Homo sapiens, UniProt P05177).
T6 construct: from tissue; host or cells: human liver microsomes
T6 sequence (P05177 whole entry): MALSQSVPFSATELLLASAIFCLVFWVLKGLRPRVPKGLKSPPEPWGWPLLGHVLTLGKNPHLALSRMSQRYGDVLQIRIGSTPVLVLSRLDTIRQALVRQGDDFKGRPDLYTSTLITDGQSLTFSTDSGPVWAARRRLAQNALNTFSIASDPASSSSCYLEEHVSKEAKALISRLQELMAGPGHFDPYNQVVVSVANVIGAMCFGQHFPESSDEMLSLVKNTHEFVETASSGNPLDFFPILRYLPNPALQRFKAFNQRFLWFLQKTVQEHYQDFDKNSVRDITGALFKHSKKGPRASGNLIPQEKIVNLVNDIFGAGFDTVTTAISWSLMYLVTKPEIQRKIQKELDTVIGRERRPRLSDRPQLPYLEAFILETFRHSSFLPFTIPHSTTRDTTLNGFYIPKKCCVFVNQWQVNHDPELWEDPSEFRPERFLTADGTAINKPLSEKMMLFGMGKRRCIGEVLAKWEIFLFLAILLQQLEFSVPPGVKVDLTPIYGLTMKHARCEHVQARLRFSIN
Type of series: in vitro ADME.

In the next series the test system is HepG2 cells. Particulars: human, 24 h.
In series [8] the test system is Salmonella typhimurium strains TA98 and TAMix.
For series [9] the following is noted: CD-1, mouse, in vivo.
For series [10] the following is noted: female, Balb/c, mouse, in vivo, po, 5 mg/kg.
In the next series the test system is MDR-TB strains. The settings on record: cited from earlier work.
In series [11] the test system is M. tuberculosis cytochrome bd knockout (CytBd-KO) strain. Set-up: method as in PMID 40191462. Particulars: acute mouse model; cited from earlier work.
The nature of series [12]: in vivo. The settings on record: CD-1, mouse; for half-life: t½.
The nature of series [13]: in vivo. Particulars: female, Balb/c, mouse, po, 5 mg/kg.
The nature of series [14]: in vitro. Particulars: human.
Series [15] is described as follows: in vitro. The settings on record: human. This is another data set of the same source.

The term IC50 denotes the concentration at which inhibition is half-maximal. Lower therefore signals greater potency. The MRT is a mean duration of stay, worked out from the concentration-time curve. Usually Vd stands for the apparent volume that relates the amount in the body to the concentration in plasma or blood. A higher Vd goes with wide distribution into tissue. In general, clearance refers to the rate of elimination divided by the concentration. Read a high clearance as efficient removal. What is called half-life is the time needed for the level to fall by half in the phase considered. Lower therefore signals rapid decline. As usually defined, the bioavailability is dose-corrected exposure relative to a reference, in per cent. Read a high bioavailability as much systemic uptake. A word on the Cmax: it is the highest concentration seen after dosing. The term Tmax denotes the time from dosing to the highest level. The term IC20 denotes the point of the concentration-response curve where the effect stands at 20%. The low end stands for an effect from little substance, the high end for a need for much substance.

Converted amounts (≈) assume the structure as drawn. “And” between values parts separate entries of the source, which are not always exact repeats. Equal values may be shown once. “Also recorded” adds a separate entry of the source. Read-outs that look alike come from different tables or passages of the source. Marks after values point to notes of the source that are not given here.

Sequence of human PXR (hPXR) (O75469 whole entry): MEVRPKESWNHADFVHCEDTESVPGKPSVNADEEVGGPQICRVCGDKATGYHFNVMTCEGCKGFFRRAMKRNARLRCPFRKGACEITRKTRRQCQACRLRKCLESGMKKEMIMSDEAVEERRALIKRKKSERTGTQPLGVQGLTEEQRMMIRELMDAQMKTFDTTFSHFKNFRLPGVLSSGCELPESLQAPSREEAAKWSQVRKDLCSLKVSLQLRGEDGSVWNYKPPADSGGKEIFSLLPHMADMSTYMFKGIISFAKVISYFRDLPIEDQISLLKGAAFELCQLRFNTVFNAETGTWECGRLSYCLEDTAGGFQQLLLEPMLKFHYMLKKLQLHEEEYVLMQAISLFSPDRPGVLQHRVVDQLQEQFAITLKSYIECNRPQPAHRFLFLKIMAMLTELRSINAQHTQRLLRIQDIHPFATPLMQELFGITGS
T3 sequence (P10632 whole entry): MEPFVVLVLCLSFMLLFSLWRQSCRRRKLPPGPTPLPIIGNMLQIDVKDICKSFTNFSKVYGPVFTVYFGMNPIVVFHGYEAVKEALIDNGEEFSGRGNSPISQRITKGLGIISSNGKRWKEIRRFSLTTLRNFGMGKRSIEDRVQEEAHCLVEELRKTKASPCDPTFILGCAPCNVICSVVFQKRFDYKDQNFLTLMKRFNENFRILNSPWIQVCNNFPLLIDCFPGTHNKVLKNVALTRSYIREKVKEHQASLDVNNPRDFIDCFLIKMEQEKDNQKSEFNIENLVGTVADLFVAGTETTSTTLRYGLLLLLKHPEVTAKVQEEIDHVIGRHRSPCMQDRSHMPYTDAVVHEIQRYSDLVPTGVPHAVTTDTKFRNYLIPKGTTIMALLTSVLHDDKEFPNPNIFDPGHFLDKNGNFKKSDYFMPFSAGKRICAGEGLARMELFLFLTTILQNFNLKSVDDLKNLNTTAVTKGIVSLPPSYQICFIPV
T1 sequence (P08684 whole entry): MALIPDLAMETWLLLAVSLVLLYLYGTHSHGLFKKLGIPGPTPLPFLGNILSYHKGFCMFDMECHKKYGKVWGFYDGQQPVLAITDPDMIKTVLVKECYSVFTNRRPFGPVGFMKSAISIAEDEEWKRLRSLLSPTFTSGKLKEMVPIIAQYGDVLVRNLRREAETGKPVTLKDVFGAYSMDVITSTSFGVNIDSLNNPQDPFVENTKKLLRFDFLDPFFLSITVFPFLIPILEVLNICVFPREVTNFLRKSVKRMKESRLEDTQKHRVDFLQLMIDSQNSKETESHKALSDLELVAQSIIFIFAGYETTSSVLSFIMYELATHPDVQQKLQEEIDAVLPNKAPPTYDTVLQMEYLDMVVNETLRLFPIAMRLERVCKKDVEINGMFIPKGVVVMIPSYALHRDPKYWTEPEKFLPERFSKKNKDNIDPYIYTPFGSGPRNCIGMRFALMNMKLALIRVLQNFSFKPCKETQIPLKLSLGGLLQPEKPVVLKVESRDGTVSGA

Take `COc1nc2ccc(Br)cc2cc1[C@@H](c1ccccc1)[C@@](O)(CCN(C)C)c1cccc2ccccc12` [Bedaquiline, bedaquiline, reference compound]: the “Survival of mice under monotherapy” value in series [1] (in vivo, iv) was 100%. The “Day of death, individual mice” value in series [1] (intravenous model) amounted to 96. For the same molecule, the MIC90 turned out to be 0.197 µM (≈ 0.109 µg/mL) with M. tuberculosis H37Rv [2] (strain H37Rv (Institut Pasteur, lineage 4), read-out: MIC90); 0.431 µM (≈ 0.239 µg/mL) in series [3] (strain Mtb-0617 (Karonga, lineage 3)); 0.064 µM (≈ 0.0356 µg/mL) in series [3] (strain Mtb-2703 (Karonga, lineage 3)); 0.045 µM (≈ 0.025 µg/mL) in [3] (strain Mtb-4779 (Karonga, lineage 2)); 0.063 µM (≈ 0.035 µg/mL) in series [3] (strain Mtb-4980 (Karonga, lineage 4)); 0.053 µM (≈ 0.0294 µg/mL) in series [3] (strain Mtb-6787 (Karonga, lineage 4)). In addition, the MIC90 was 0.43 µM (≈ 0.239 µg/mL) in series [3] (strain Mtb-7489 (Karonga, lineage 1)); 0.106 µM (≈ 0.0589 µg/mL) in series [3] (strain Mtb-7496 (Karonga, lineage 3)); 0.05 µM (≈ 0.0278 µg/mL) in series [3] (strain Mtb-9271 (Karonga, lineage 4)); 0.188 µM (≈ 0.104 µg/mL) in [3] (strain Mtb-61164 (Karonga, lineage 2)); 0.354 µM (≈ 0.197 µg/mL) in series [3] (strain N0054 (Gagneux, lineage 3)); 0.17 µM (≈ 0.0944 µg/mL) in [3] (strain N0072 (Gagneux, lineage 1)). In [3] (strain N1283 (Gagneux, lineage 4)), this molecule showed an MIC90 of 0.104 µM (≈ 0.0578 µg/mL). In addition, the MIC50 in series [4] was 0.05 µM (≈ 0.0278 µg/mL).

For `NNC(=O)c1ccncc1` [Isoniazid, isoniazid], in series [4], the MIC50 was found to be 0.51 µM (≈ 0.0699 µg/mL).

Regarding `CCc1nc2ccc(Cl)cn2c1C(=O)NCc1ccc(C2CC3(C2)CN(S(=O)(=O)C(F)(F)F)C3)cc1` [JNJ-2901], the “Day of death, individual mice” value in series [1] (intravenous model, listed as J-901) was 16* and 20 and 54 and 26 and 77 and 82. Also, the “Survival of mice under monotherapy” value in [1] (intravenous model, six mice per group, treated for three months, 5 days per week, bedaquiline 25, moxifloxacin 100, JNJ-2901 10 mg kg-1) was “inability to rescue mice”. The MIC90 worked out at 0.009 µM (≈ 0.00487 µg/mL) with M. tuberculosis H37Rv [2] (H37RV, read-out: MIC90 (H37Rv)) and 0.006 µM (≈ 0.00325 µg/mL) in the series on H37Rv_CydBd-KO. For the same molecule, the MBC in the series with M. tuberculosis H37Rv [5] is > 0.5 µM; in the series with H37Rv_CytBd-KO it was 0.015 µM (≈ 0.00811 µg/mL). Further, the CFU counts in the series with WT H37Rv (Conc 8 nM) is 80000000 CFU and 35000000 CFU and 53000000 CFU and 30000000 CFU; in the series on WT H37Rv (Conc 32 nM), 60000000 CFU and 30000000 CFU and 17000000 CFU and 12000000 CFU; in the series on WT H37Rv (Conc 128 nM) it was 20000000 CFU and 14000000 CFU and 12000000 CFU; in the series with N1283 clinical isolate (Conc 8 nM), 9000000 CFU and 800000 CFU and 200000 CFU; with N1283 clinical isolate (Conc 32 nM), 110000 CFU and 300000 CFU and 80000 CFU and 50000 CFU; in the series on N1283 clinical isolate (Conc 128 nM) it was 20000 CFU and 50000 CFU and 90000 CFU and 80000 CFU. The MIC50 in series [4] is 0.01 µM (≈ 0.00541 µg/mL). In [6] (hepatocytes), the “Dog Hep Clint” value amounted to 13 µL min-1 106 cells-1. In addition, in [6] (hepatocytes), the “Human Hep Clint” value came to 10 µL min-1 106 cells-1. For the same molecule, the “Rat Hep Clint” value in series [6] (hepatocytes) is given as 16 µL min-1 106 cells-1. In addition, the “Dog LM Clint” value in series [6] (microsomes) was 13.1 µL min-1 mg protein-1. In [6] (microsomes), the “Human LM Clint” value came to 63.3 µL min-1 mg protein-1. Besides, the “Mouse LM Clint” value in series [6] (microsomes) is 41.0 µL min-1 mg protein-1. Moreover, in [6] (microsomes), the “Rat LM Clint” value worked out at 17.9 µL min-1 mg protein-1. In addition, the “Cyp3A4 ind. (%ctrl)” value on human PXR (hPXR) (1.25 µM) is on record as 3.1 %ctrl; at human PXR (hPXR) (10 µM), 11 %ctrl. The “Mouse Hep Clint” value in series [7] was determined as 15 µL min-1 106 cells-1. The IC50 on 3A4, at 2C19, against 2C8, at 2C9, against 2D6 and on 1A2 was > 10 µM throughout. Also, the IC50 with HepG2 cells is > 100 µM. In addition, in series [8], the “Mutagenicity (AMES II)” value is “negative”. Further, the “CLp as % LBF” value in [9] (iv, 1 mg/kg) is ~ 9 % LBF. Moreover, the AUC0-inf in series [9] (female, po, 5 mg/kg) is 5287 ± 656 ng·h/mL; in series [10], 28500 ± 935 ng·h/mL; in “in vivo [12]” (female, po, 5 mg/kg, AUC0-inf), 9500 ± 1850 ng·h/mL; in the series “in vivo [13]” (AUC0-inf), 38500 ng·h/mL. Moreover, in the series with MDR-TB strains, the “activity against MDR-TB strains” value is recorded as “sub-nanomolar; also recorded: more active compared to lab-adapted strains”. For the same molecule, in [11], the “reduction in bacterial burden” value is reported as 4 log. The MRT in the series “in vivo [12]” (iv, 1 mg/kg) worked out at 9.1 ± 0.6 h. Besides, the Vd in “in vivo [12]” (iv, 1 mg/kg) was 4.4 ± 0.8 L/kg. The clearance in the series “in vivo [12]” (iv, 1 mg/kg) is 6.4 ± 1.6 mL/min/kg. In addition, the half-life in “in vivo [12]” (iv, 1 mg/kg) is 12 ± 0.2 h; in “in vivo [12]” (female, po, 5 mg/kg) it was 10 h; in the series “in vivo [13]” (t½), 8.6 ± 2.8 h. For the same molecule, the bioavailability in “in vivo [12]” (female, po, 5 mg/kg) is 70 ± 14%. For the same molecule, the Cmax was 474 ± 29 ng/mL in “in vivo [12]” (female, po, 5 mg/kg, Cmax); 2310 ± 767 ng/mL in “in vivo [13]”; 2660 ± 469 ng/mL in the series “in vivo [13]” (Cmax, Balb/c mouse, PO 5 mg kg-1, 0.5 w/v Methocel (susp.)). For the same molecule, the Tmax in the series “in vivo [12]” (female, po, 5 mg/kg, Tmax) turned out to be 7 h. Besides, it took 11.8 µM to reach the 20% level in “in vitro [14]” (IC20 at 72 h). In the series “in vitro [15]”, the 50% inhibitory concentration (IC50) at 24 h was > 100 µM.

As for `COc1c(N2C[C@@H]3CCCN[C@@H]3C2)c(F)cc2c(=O)c(C(=O)O)cn(C3CC3)c12` [Moxifloxacin, moxifloxacin, reference compound], in [1] (in vivo, iv), the “Survival of mice under monotherapy” value is listed as 100%. Also, the “Day of death, individual mice” value in series [1] (intravenous model) is on record as 96.

Regarding `CO[C@H]1/C=C/O[C@@]2(C)Oc3c(C)c(O)c4c(O)c(c(/C=N/N5CCN(C)CC5)c(O)c4c3C2=O)NC(=O)/C(C)=C\C=C\[C@H](C)[C@H](O)[C@@H](C)[C@@H](O)[C@@H](C)[C@H](OC(C)=O)[C@@H]1C` [Rifampicin, rifampicin], in series [4], the MIC50 was 0.1 µM (≈ 0.0823 µg/mL).
